Test results: the OPERA property sets (Mansouri et al. 2018)

Structure (SMILES)	logP
COc1ccc(NC(=O)Cc2ccccc2)cc1	2.49
CC(=O)N(c1ccccc1)c1ccc(C)cc1	3.05
O=C(Cc1ccccc1)Nc1ccc([N+](=O)[O-])cc1	3.18
O=C(Cc1ccccc1)Nc1ccccc1F	2.62
O=C(Cc1ccccc1)Nc1cccc([N+](=O)[O-])c1	2.93
CC(=O)c1ccc(NC(=O)Cc2ccccc2)cc1	2.75
N#Cc1cccc(NC(=O)Cc2ccccc2)c1	2.75
O=C(Cc1ccccc1)Nc1ccc(Br)cc1	3.7
Nc1ccccc1NC(=O)Cc1ccccc1	1.45
O=C(Cc1ccccc1)Nc1ccccc1O	2.4
COc1ccccc1NC(=O)Cc1ccccc1	2.68
O=C(Cc1ccccc1)Nc1ccccc1	2.7
O=C(Cc1ccccc1)Nc1ccc(Cl)cc1	3.54
CCNc1cccc(NC(=O)Cc2ccccc2)c1	2.59
O=C(Cc1ccccc1)Nc1ccc(F)cc1	2.86
O=C(Cc1ccccc1)Nc1ccc(O)cc1	1.82
O=C(Cc1ccccc1)Nc1ccccc1[N+](=O)[O-]	2.73
CCc1cccc(N(C(C)=O)c2ccccc2)c1	3.47

Next, values leading:

logP	Structure (SMILES)
2.86	COc1cccc(NC(=O)Cc2ccccc2)c1
3.23	CCOc1cccc(NC(=O)Cc2ccccc2)c1
2.37	CC(=O)Oc1cccc(NC(=O)Cc2ccccc2)c1
3.14	Cc1cccc(NC(=O)Cc2ccccc2)c1
1.59	Nc1cccc(NC(=O)Cc2ccccc2)c1
3.77	O=C(Cc1ccccc1)Nc1cccc(Br)c1
2.22	O=C(Cc1ccccc1)Nc1cccc(O)c1
3.1	O=C(Cc1ccccc1)Nc1cccc(F)c1
2.31	CNc1cccc(NC(=O)Cc2ccccc2)c1
3.91	O=C(Cc1ccccc1)Nc1cccc(I)c1
2.62	CC(=O)c1cccc(NC(=O)Cc2ccccc2)c1
2.32	CS(=O)(=O)Oc1cccc(NC(=O)Cc2ccccc2)c1
